Like-named read-outs stand apart in the source and are kept apart here.
What was measured:
SOS1 = target: T1, SOS1 (Homo sapiens, UniProt Q07889); assay: SOS-catalyzed nucleotide exchange assay (HTRF, SOS1-mediated GTP loading of KRAS G12D); assay type: biochemical
T1 construct: HIS-SOS1cat (160 nM; Cytoskeleton, US); His (N); purchased Cytoskeleton
T1 sequence (Q07889 564-1049 limits assumed): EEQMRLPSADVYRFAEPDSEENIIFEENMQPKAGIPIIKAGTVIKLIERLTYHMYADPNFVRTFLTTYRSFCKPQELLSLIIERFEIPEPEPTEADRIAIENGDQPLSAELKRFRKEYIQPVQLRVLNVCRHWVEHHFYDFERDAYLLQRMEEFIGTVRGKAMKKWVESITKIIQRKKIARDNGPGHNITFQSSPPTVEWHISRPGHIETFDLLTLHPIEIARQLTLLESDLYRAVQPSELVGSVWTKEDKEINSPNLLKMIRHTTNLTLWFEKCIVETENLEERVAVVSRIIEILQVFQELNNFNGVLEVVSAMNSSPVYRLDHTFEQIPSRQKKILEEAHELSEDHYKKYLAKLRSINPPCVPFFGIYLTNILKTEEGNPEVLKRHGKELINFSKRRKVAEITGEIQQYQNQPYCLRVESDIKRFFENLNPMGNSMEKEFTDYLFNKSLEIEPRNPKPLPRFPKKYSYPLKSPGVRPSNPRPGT

KRAS G12C::SOS1 = target: T2, KRAS G12C::SOS1 (Homo sapiens, UniProt Q07889); assay: KRAS G12C::SOS1 protein-protein interaction (PPI) inhibition assay (HTRF); assay type: binding
T2 construct: purchased CISBIO 64KRASG12PEH
T2 sequence (Q07889 1-1333): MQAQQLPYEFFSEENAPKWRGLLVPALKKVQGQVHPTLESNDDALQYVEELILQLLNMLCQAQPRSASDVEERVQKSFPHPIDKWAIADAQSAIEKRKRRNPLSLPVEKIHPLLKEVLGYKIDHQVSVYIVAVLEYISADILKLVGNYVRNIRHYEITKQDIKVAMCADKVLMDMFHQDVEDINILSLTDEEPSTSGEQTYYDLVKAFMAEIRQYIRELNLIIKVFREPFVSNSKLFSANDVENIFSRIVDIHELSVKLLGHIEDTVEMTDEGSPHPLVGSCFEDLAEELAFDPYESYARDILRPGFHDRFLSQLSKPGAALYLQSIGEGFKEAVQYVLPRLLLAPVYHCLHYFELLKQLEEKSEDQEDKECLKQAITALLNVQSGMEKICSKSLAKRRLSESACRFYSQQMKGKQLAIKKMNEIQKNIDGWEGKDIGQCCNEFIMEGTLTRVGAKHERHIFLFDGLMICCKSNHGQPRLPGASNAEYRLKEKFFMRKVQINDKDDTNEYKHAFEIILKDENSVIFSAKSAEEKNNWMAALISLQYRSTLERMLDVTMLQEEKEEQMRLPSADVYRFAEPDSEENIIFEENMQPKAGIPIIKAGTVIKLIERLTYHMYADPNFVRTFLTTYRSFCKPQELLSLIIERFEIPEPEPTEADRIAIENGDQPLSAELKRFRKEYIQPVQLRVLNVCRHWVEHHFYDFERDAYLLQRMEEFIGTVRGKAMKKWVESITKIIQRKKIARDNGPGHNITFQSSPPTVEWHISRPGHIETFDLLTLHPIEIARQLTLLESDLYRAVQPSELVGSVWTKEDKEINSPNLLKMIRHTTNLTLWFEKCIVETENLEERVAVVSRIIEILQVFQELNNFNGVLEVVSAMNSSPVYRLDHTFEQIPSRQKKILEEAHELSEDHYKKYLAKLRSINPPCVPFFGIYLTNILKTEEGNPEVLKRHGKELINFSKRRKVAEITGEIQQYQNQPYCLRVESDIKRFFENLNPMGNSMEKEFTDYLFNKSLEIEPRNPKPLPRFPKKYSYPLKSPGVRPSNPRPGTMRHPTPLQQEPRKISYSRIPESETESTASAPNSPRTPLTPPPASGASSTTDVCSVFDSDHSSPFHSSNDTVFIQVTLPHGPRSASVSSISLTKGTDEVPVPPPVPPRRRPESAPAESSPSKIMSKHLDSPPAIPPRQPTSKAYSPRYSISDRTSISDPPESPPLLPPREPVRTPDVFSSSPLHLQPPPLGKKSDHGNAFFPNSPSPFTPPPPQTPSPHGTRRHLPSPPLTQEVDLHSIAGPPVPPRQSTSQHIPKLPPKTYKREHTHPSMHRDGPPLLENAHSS
Outline: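 Compounds, at eight 3-fold dilutions from 3 µM, were mixed with GTP-loaded Tag1-KRAS G12C, Tag2-SOS1 and a terbium-cryptate donor plus XL665 acceptor antibody pair. After 2 h at room temperature, time-resolved FRET reported the KRAS–SOS1 interaction.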

[1] = tested on: lung cancer cell line NCI-H358 having the KRAS G12C variant; assay: Cancer cell growth inhibition, 3D spheroids (CellTiter-Glo 3D); assay type: cell-based; settings: read-out: H358 cell viability
Procedure: Thereafter, the plate with the cells cultured was adapted to room temperature for 10 minutes, and then 50 µL of CellTiter-Glo® 3D Cell Viability Assay (PROMEGA, G9683) solution was dispensed, and reacted on a horizontal stirrer at a speed of 300 RPM for 30 minutes to induce the cell lysis. […] Thereafter, based on the measured values, the degree of cell growth in the well treated with each compound was calculated when the final cell density value of the well not treated with the test substance was set to 100%.

[2] = GST-KRAS G12D, HIS-SOS1cat, compound 128 pM to 10 µM, read-out: SOS-catalyzed nucleotide exchange assay
[3] = 8 concentrations from 3 µM, three replicates, read-out: KRAS G12C::SOS1 PPI
[4] = Homo sapiens, NCI-H358, 120 h, 3D spheroids, 0.002-10 µM, 5 days

Row | Molecule | IC50 (SOS1; [2]) [nM] | IC50 (KRAS G12C::SOS1; [3]) [nM] | IC50 [1, 4] [nM] | IC50 ([1]; 3D spheroids, 0.002-10 µM, 5 days) [nM] | IC50 (SOS1) [nM] | IC50 (KRAS G12C::SOS1) [nM] | IC50 ([1]; Homo sapiens, NCI-H358, 120 h) [nM]
1 | C[C@@H](NC(=O)c1ccc(=O)n(-c2cncc(-c3cnnn3C)c2)n1)c1cccc(C(C)(F)F)c1F [Example 1-11, N-[(1R)-1-[3-(1,1-difluoroethyl)-2-fluoro-phenyl]ethyl]-1-[5-(3-methyltriazol-4-yl)-3-pyridyl]-6-oxo-pyridazine-3-carboxamide] | 50 to 150 | 50 to 150 | < 1000 | – | – | – | –
2 | C[C@@H](NC(=O)c1cc(-c2ccccc2)c(=O)n(-c2cncc(-c3cnnn3C)c2)n1)c1cccc(C(F)(F)F)c1F [Example 1-63, N-{(R)-1-[2-fluoro-3-(trifluoromethyl)phenyl]ethyl}-1-[5-(1-methyl-1H-1,2,3-triazol-5-yl)-3-pyridyl]-6-oxo-5-phenyl-1,6-dihydropyridazine-3-carboxamide] | 50 to 150 | 50 to 150 | < 1000 | – | – | – | –
3 | C[C@@H](NC(=O)c1ccc(=O)n(-c2cnnc(-c3cnnn3C)c2)n1)c1cccc(C(F)(F)CO)c1F [Example 1-37, N-{(1R)-1-[3-(1,1-difluoro-2-hydroxyethyl)-2-fluoro-phenyl]ethyl}-6'-(1-methyl-1H-1,2,3-triazol-5-yl)-6-oxo-6H-[1,4'-bipyridazine]-1,6-dihydro-3-carboxamide] | 50 to 150 | 50 to 150 | > 3000 | – | – | – | –
4 | CC(C)n1nncc1-c1cncc(-n2nc(C(=O)N[C@H](C)c3cccc(C(F)(F)CO)c3F)ccc2=O)c1 [Example 1-52, N-[(1R)-1-[3-(1,1-difluoro-2-hydroxy-ethyl)-2-fluoro-phenyl]ethyl]-1-[5-(1-isopropyl-1H-1,2,3-triazol-5-yl)-3-pyridyl]-6-oxo-pyridazine-3-carboxamide] | < 50 | 50 to 150 | < 1000 | – | – | – | –
5 | Cc1cc(C(=O)N[C@H](C)c2cccc(C(F)(F)CO)c2F)nn(-c2cncc(-c3cnnn3C(C)C)c2)c1=O [Example 1-39, N-{(R)-1-[3-(1,1-difluoro-2-hydroxyethyl)-2-fluorophenyl]ethyl}-1-[5-(1-isopropyl-1H-1,2,3-triazol-5-yl)-3-pyridyl]-5-methyl-6-oxo-1,6-dihydropyridazine-3-carboxamide] | < 50 | < 50 | < 1000 | – | – | – | –
6 | CC(=O)c1cc(C(=O)N[C@H](C)c2cccc(C(F)(F)F)c2F)nn(-c2cncc(-c3cnnn3C)c2)c1=O [Example 1-62, N-{(R)-1-[2-fluoro-3-(trifluoromethyl)phenyl]ethyl}-5-acetyl-1-[5-(1-methyl-1H-1,2,3-triazol-5-yl)-3-pyridyl]-6-oxo-1,6-dihydropyridazine-3-carboxamide] | 50 to 150 | < 50 | < 1000 | – | – | – | –
7 | C[C@@H](NC(=O)c1ccc(=O)n(-c2cnc(F)c(-c3cnnn3C)c2)n1)c1cccc(C(F)(F)F)c1F [Example 6] | – | – | – | – | 50 to 150 | 50 to 150 | < 1000
8 | C[C@@H](NC(=O)c1cc(CO)c(=O)n(-c2cncc(-c3cnnn3C)c2)n1)c1cccc(C(F)(F)F)c1F [Example 1-61, N-{(R)-1-[2-fluoro-3-(trifluoromethyl)phenyl]ethyl}-5-(hydroxymethyl)-1-[5-(1-methyl-1H-1,2,3-triazol-5-yl)-3-pyridyl]-6-oxo-1,6-dihydropyridazine-3-carboxamide] | 50 to 150 | < 50 | < 1000 | – | – | – | –
9 | Cc1ncc(-n2nc(C(=O)N[C@H](C)c3cccc(C(F)(F)F)c3F)ccc2=O)cc1-c1cnnn1C [Example 1-26, N-[(1R)-1-[2-fluoro-3-(trifluoromethyl)phenyl]ethyl]-1-[6-methyl-5-(3-methyltriazol-4-yl)-3-pyridyl]-6-oxo-pyridazine-3-carboxamide] | 50 to 150 | 50 to 150 | < 1000 | – | – | – | –
10 | C[C@@H](NC(=O)c1ccc(=O)n(-c2cc(-c3cnnn3C3CC3)cnc2F)c1)c1cccc(C(F)(F)F)c1F [Example 1-67, (R)-5'-(1-cyclopropyl-1H-1,2,3-triazol-5-yl)-2'-fluoro-N-(1-(2-fluoro-3-(trifluoromethyl)phenyl)ethyl)-2-oxo-2H-[1,3'-bipyridine]-5-carboxamide] | < 50 | 50 to 150 | < 1000 | – | – | – | –

Continued, in another order:

Row | IC50 (SOS1; [2]) [nM] | IC50 (KRAS G12C::SOS1; [3]) [nM] | IC50 [1, 4] [nM] | IC50 ([1]; 3D spheroids, 0.002-10 µM, 5 days) [nM] | Molecule | IC50 (SOS1) [nM] | IC50 (KRAS G12C::SOS1) [nM] | IC50 ([1]; Homo sapiens, NCI-H358, 120 h) [nM]
11 | < 50 | < 50 | > 3000 | – | Cc1cc(C(=O)N[C@H](C)c2cc(N)cc(C(F)F)c2)nn(-c2cncc(-c3cnnn3C)c2)c1=O [Example 2-7, N-[(1R)-1-[3-amino-5-(difluoromethyl)phenyl]ethyl]-5-methyl-1-[5-(3-methyltriazol-4-yl)-3-pyridyl]-6-oxo-pyridazine-3-carboxamide] | – | – | –
12 | < 50 | < 50 | < 1000 | – | Cc1c([C@@H](C)NC(=O)c2ccc(=O)n(-c3cncc(-c4ccnn4C)c3)n2)cc(N)cc1C(F)(F)F [Example 2-4, N-[(1R)-1-[5-amino-2-methyl-3-(trifluoromethyl)phenyl]ethyl]-1-[5-(2-methylpyrazol-3-yl)-3-pyridyl]-6-oxo-pyridazine-3-carboxamide] | – | – | –
13 | 50 to 150 | 50 to 150 | < 1000 | – | [2H]C([2H])([2H])c1cc(C(=O)N[C@H](C)c2cccc(C(F)(F)F)c2F)nn(-c2cncc(-c3cnnn3C)c2)c1=O [Example 7-1, N-{(R)-1-[2-fluoro-3-(trifluoromethyl)phenyl]ethyl}-5-[methyl-trideuterio]-1-[5-(1-methyl-1H-1,2,3-triazol-5-yl)-3-pyridyl]-6-oxo-1,6-dihydropyridazine-3-carboxamide] | – | – | –
14 | < 50 | < 50 | – | < 1000 | N-[(1R)-1-[5-amino-3-(difluoromethyl)-2-fluoro-phenyl]ethyl]-5-methyl-1-[5-(3-methyltriazol-4-yl)-3-pyridyl]-6-oxo-pyridazine-3-carboxamide [Example 2-3] | – | – | –
15 | < 50 | < 50 | < 1000 | – | C[C@@H](NC(=O)c1ccc(=O)n(-c2cc(-c3cnnn3C)cnc2F)n1)c1cccc(C(F)(F)F)c1F [Example 6-7, N-{(R)-1-[2-fluoro-3-(trifluoromethyl)phenyl]ethyl}-1-[2-fluoro-5-(1-methyl-1H-1,2,3-triazol-5-yl)-3-pyridyl]-6-oxo-1,6-dihydropyridazine-3-carboxamide] | – | – | –
